According to BigSolDB 2.1:

NC(=O)N/N=C/c1ccc([N+](=O)[O-])o1
solubility (mole fraction)
Conditions | in DMF | in acetone | in acetonitrile | in ethanol | in formamide | in isopropanol | in methanol | in n-propanol | in water
278.15 K | 0.0219 | 0.000298 | 8.46e-05 | 6.97e-05 | 0.00169 | 7.04e-05 | 0.000148 | 8.53e-05 | 1.31e-05
283.15 K | 0.0227 | 0.000345 | 0.000103 | 8.33e-05 | 0.00191 | 9.57e-05 | 0.000172 | 0.000106 | 1.62e-05
288.15 K | 0.0235 | 0.000392 | 0.000123 | 0.0001 | 0.00208 | 0.000113 | 0.000201 | 0.00013 | 1.88e-05
293.15 K | 0.0246 | 0.000443 | 0.000146 | 0.000121 | 0.00239 | 0.000131 | 0.000233 | 0.000149 | 2.29e-05
298.15 K | 0.0265 | 0.000512 | 0.000176 | 0.000143 | 0.00267 | 0.000169 | 0.000282 | 0.000188 | 2.92e-05
303.15 K | 0.028 | 0.000568 | 0.000211 | 0.000175 | 0.00298 | 0.000216 | 0.000326 | 0.000236 | 3.66e-05
308.15 K | 0.0289 | 0.000647 | 0.000247 | 0.000213 | 0.00334 | 0.000262 | 0.000387 | 0.000285 | 4.5e-05
313.15 K | 0.0305 | 0.000738 | 0.000288 | 0.000253 | 0.00364 | 0.000344 | 0.00044 | 0.000368 | 5.89e-05
